Assay results from patent US20240050735A1, “SYSTEMS AND METHODS FOR TREATING AND INHIBITING WOUND INFECTIONS” (priority 2020, published 2024).
Where “and” joins values, the source holds several entries; their conditions need not be identical. Equal values may be shown once. Where a name gives a salt, the structure may show the parent alone. Read-outs that look alike come from different tables or passages of the source.

Assays:
[1] = 0.3 mA cm^−2 for 4 hours; cited from earlier work
[2] = conventional transdermal iontophoresis 0.31 mA cm^−2; cited from earlier work
planktonic MRSA = assay: Minimum inhibitory concentration (MIC) to planktonic MRSA; type: cell-based, Methicillin-resistant S. aureus (MRSA) USA300; conditions: Staphylococcus aureus; planktonic MRSA cells, 24 hours, OD600
Experimental: Methicillin-resistant S. aureus (MRSA) USA300 strain was used in this study. The planktonic bacteria were cultured in LB medium. Vancomycin hydrochloride (Apexbio Technology LLC, Houston, Tex., USA) and daptomycin (Combi-Blocks, San Diago Calif., USA) were used to treat MRSA biofilm. The minimum inhibitory concentration (MIC) of vancomycin hydrochloride to planktonic MRSA cells was determined as 1.2 μg mL^−1 (see FIG. 17B), which was in consistent with the results reported previously.
MRSA bacteria was cultured in LB media in a 37° C. water shaking bath overnight to reach the concentration of 1×10^8 CFU mL^−1. Then, they were diluted to 10^5 CFU mL^−1 in 96-well plates by adding different concentrations of VAN solutions. After incubation for 24 hours without shaking, MIC of VAN to inhibit MRSA growth was measured by a Biotek Synergy H1 hybrid multi-mode microplate reader (BioTek, Winooski, Vt., USA) at OD600. To evaluate the killing time of VAN to bacteria in stationary phase (1×10^8 CFU mL^−1), VAN powder was added to bacteria solution to obtain concentration of 1 mg mL^−1, 3 mg mL^−1, 5 mg mL^−1, and 10 mg mL^−1, respectively, while remaining MRSA concentration of 1×10^8 CFU mL^−1. After incubation in a 37° C. water bath for 1 day, 2 days, 3 days and 4 days, the CFU of MRSA cells was tested by the standard plate spread counting assay, respectively. […]

S. aureus biofilms = conditions: cited from earlier work
MRSA biofilm = conditions: cited from earlier work
[3] = type: in vitro ADME; conditions: for permeation coefficient (Pc): 1 mg mL^−1 VAN; for accumulated concentration in wound tissue: 1 mg mL^−1 VAN loaded
Experimental: Investigations were also performed to determine the iontophoretic antibiotic delivery efficiency of the HIC-based biofilm treatment system 100 using high current intensities. These investigations included an ex vivo antibiotic delivery study using the same MRSA biofilm-infected porcine skin wound model as in the previous section. Vancomycin (VAN) was used here as a model drug, since it is the FDA-approved antibiotic and is the clinical gold standard for combating S. aureus infections.
First the VAN delivery efficiency was tested at different current intensities (from 0 mA cm^−2 (passive diffusion) to 75 mA cm^−2) applied by the HIC-based biofilm treatment system 100 for 1 hour. The drug/buffer chamber 114 of the working device 104 was loaded with 1 mg mL^−1 VAN in this study. The anode side was used as the working device 104 because VAN required anodal iontophoresis. The accumulated concentration of VAN in biofilm infected skin wound was measured immediately after iontophoresis using high performance liquid chromatography (HPLC). […] When 75 mA cm^−2 was used, the VAN concentration in wound tissue increased to 4.5±0.52 mg g^−1. The VAN concentration in wound tissue after passive diffusion, 0.5 mA cm^−2, and 19 mA cm^−2 iontophoresis were also measured. However, they could not be distinguished from the background interference of the residual biofilm components, so no quantitative results were obtained (data not shown). Importantly, the VAN concentration delivered by 75 mA cm^−2 iontophoresis for 1 hour exceeded the minimal biofilm eradication concentration (MBEC) of VAN reported for MRSA biofilm, which was 4 mg g^−1. The ability to deliver a lethal antibiotic concentration into biofilm-infected wounds within a short period of time was critical for biofilm treatment as it would minimize the chance for bacteria to develop adaptive tolerance.
The fetal pig skin samples (approximately 30×30 mm) were immersed in 10% (v/v) bleach for 5 minutes after hair removal. Then, skin samples were sterilized in 70% ethanol for 30 minutes. The surface of skin sample was further cleaned by 10% povidone-iodine and 70% isopropanol to prevent contamination. A 6-mm disposable biopsy punch was used to create an excisional wound. Samples were put into sterile 10-cm petri-dishes filled with sterile PBS (6 mL). The wound was then inoculated with 1×10^8 CFU mL^−1 MRSA bacteria solution (20 μL). The bacteria were allowed to grow in a 37° C. Heratherm™ compact microbiological incubator (ThermoFischer Scientific™, Waltham, Mass., USA) for 48 hours to form mature biofilms.
To evaluate the antibiotic delivery efficacy of VAN by high-intensity current, biofilm infected fetal pig skin wound was used. The DAP test setup was same as that of VAN, except no PBS chamber 122 was used. Instead, the inner surface of the skin wound contacted directly to the hydrogel 120 of the counter device 106. To evaluate the effect of electrical current intensity on the drug delivery efficacy, different current intensities from 0 to 75 mA cm^−2 were applied. To evaluate the effect of loading concentration of antibiotics, different concentrations of VAN and DAP from 1 mg mL^−1 to 10 mg mL^−1 were used. Since VAN is […] and DAP is negatively charged under physiological environment, anode HIC-based device was placed facing biofilm for VAN iontophoresis, and cathode HIC-based device was placed facing biofilm for DAP iontophoresis. Samples were collected immediately after different treatments. The concentrations of antibiotics delivered into skin wound samples were measured by high-performance liquid chromatography (HPLC). The permeation coefficient (Pc, cm s^−1) was then calculated (Pc=J/C, where J is antibiotic delivery flux in tissue samples (μg (cm^2s)^−1, C is the loading concentration of antibiotic solution (μg m L^−1)). […]

CN[C@H](CC(C)C)C(=O)N[C@H]1C(=O)N[C@@H](CC(N)=O)C(=O)N[C@H]2C(=O)N[C@H]3C(=O)N[C@H](C(=O)N[C@H](C(=O)O)c4cc(O)cc(O)c4-c4cc3ccc4O)[C@H](O)c3ccc(c(Cl)c3)Oc3cc2cc(c3O[C@@H]2O[C@H](CO)[C@@H](O)[C@H](O)[C@H]2O[C@H]2C[C@](C)(N)[C@H](O)[C@H](C)O2)Oc2ccc(cc2Cl)[C@H]1O [VAN, Vancomycin hydrochloride]
amount delivered into the epidermis by iontophoresis vs passive diffusion [1]: 2.1 times | permeation coefficient (Pc) [2]: 221000 cm/s | MIC (planktonic MRSA): 1.2 µg/mL | diffusion coefficient in S. aureus biofilms (S. aureus biofilms; 2012 study): 0.2 μm 2 s^−1 | slower than its diffusion in water (S. aureus biofilms; S. aureus biofilms): more than 1,000 times | minimal biofilm eradication concentration (MBEC) (MRSA biofilm): 4 mg/g | conventional Pc lower than Pc by 75 mA cm^−2 HIC iontophoresis ([3]; 0.31 mA cm^−2 conventional vs 75 mA cm^−2 HIC): 980 times | permeation coefficient (Pc) ([3]; 38 mA cm^−2, 1 hour): 112.0±20.97 ×10^−6 cm s^−1 | accumulated concentration in wound tissue ([3]; 38 mA cm^−2, 1 hour): 2.5 ± 0.32 mg/g | permeation coefficient (Pc) ([3]; 75 mA cm^−2, 1 hour): 216.5±18.96 ×10^−6 cm s^−1 | accumulated concentration in wound tissue ([3]; 75 mA cm^−2, 1 hour, hydrochloride): 4.5 ± 0.52 mg/g and 4.5 mg/g | concentration in wound tissue ([3]; 75 mA cm^−2, 1 hour, 5 mg mL^−1 VAN loaded): more than 16 mg g^−1 | concentration in wound tissue ([3]; 75 mA cm^−2, 1 hour, 10 mg mL^−1 VAN loaded): more than 16 mg g^−1
